Tests used:
glucocorticoid receptor [1] = molecular target: T1, glucocorticoid receptor (Homo sapiens, UniProt P04150); assay: Assay for transactivation activity of the glucocorticoid agonists (MMTV-LTR renilla luciferase reporter); assay type: cell-based; conditions: A549, A549 cells, 6 hour at 37° C., read-out: maximal response relative to Dexamethasone (100%), transactivation
T1 sequence (P04150 1-777): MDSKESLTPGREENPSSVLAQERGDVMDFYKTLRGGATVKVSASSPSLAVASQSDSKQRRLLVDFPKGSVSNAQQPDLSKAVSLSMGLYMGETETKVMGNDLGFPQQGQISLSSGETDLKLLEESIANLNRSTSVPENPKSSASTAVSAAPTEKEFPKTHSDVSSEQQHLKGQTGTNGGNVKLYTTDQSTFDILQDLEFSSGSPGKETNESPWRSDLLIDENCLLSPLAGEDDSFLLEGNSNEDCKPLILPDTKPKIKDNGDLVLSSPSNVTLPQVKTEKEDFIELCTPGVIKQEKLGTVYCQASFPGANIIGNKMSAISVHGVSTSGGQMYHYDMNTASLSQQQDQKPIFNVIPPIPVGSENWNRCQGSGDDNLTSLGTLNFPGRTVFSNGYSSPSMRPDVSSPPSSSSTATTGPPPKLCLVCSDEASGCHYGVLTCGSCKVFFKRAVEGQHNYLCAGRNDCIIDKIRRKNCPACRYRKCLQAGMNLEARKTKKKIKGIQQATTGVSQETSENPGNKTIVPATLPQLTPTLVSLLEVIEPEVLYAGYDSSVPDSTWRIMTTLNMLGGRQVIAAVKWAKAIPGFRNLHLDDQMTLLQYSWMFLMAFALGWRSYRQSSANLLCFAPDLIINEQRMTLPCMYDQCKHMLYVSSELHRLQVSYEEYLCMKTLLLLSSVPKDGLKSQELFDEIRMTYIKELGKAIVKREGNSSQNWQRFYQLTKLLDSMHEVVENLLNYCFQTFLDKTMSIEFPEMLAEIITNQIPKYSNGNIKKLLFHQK
Protocol: Assay for Transactivation Activity of the Glucocorticoid Agonists
The functional assay based on that described by R. J. H. Austin et al., Eur Resp J. (2002), 20, 1386-1392 measures the ability of compounds to directly transactivate gene expression. A549 cells stably transfected with a reporter gene containing the glucocorticoid responsive region of the mouse mammary tumour virus long terminal repeat (MMTV-LTR) coupled to renilla luciferase were treated with test compounds at appropriate doses for 6 hour at 37° C. The amount of luciferase activity present within the cells is then determined by measuring the light emitted following incubation with a suitable substrate. Dose response curves were constructed from which EC50 values were estimated and from which maximal responses are calculated relative to Dexamethasone (100%).

glucocorticoid receptor [2] = molecular target: T1, glucocorticoid receptor; assay: Assay for transrepression activity of the glucocorticoid agonists (NF-κB/ELAM-sPAP reporter, TNF stimulated); assay type: cell-based; conditions: A549 cells, NF-κB responsive ELAM promoter-sPAP reporter; compound 1 hour, then TNF 10 ng/ml for 16 hours; read-out: pEC50 transrepression (converted)
Protocol: Assay for Transrepression Activity of the Glucocorticoid Agonists
The functional assay based on that described by K. P. Ray et al., Biochem J. (1997), 328, 707-715 provides a measure of transrepressive activity of a glucocorticoid agonist. A549 cells stably transfected with a reporter gene containing the NF-κB responsive elements from the ELAM gene promoter coupled to sPAP (secreted alkaline phosphatase) are treated with test compounds at appropriate doses for 1 hour at 37° C. The cells are then stimulated with tumour necrosis factor (TNF, 10 ng/ml) for 16 hours, at which time the amount of alkaline phosphatase produced is measured by a standard colourimetric assay. Dose response curves were constructed from which EC50 values were estimated.

Compound | Emax (glucocorticoid receptor [1]) [%] | EC50 (glucocorticoid receptor [2]) [nM]
CC[C@H]1CC[C@H](OC(=O)O[C@]2(C(=O)OCC#N)[C@H](C)C[C@H]3[C@@H]4C[C@H](F)C5=CC(=O)C=C[C@]5(C)[C@@]4(F)[C@@H](O)C[C@@]32C)CC1 (relative stereo) [Example 19, Cyanomethyl (6α,11β,16α,17α)-17-({[(trans-4-ethylcyclohexyl)oxy]carbonyl}oxy)-6,9-difluoro-11-hydroxy-16-methyl-3-oxoandrosta-1,4-diene-17-carboxylate] | < 40 | 
CC[C@H]1CC[C@@H](OC(=O)O[C@]2(C(=O)OCC#N)[C@H](C)C[C@H]3[C@@H]4C[C@H](F)C5=CC(=O)C=C[C@]5(C)[C@@]4(F)[C@@H](O)C[C@@]32C)CC1 (relative stereo) [Example 20, Cyanomethyl (6α,11β,16α,17α)-17-({[(cis-4-ethylcyclohexyl)oxy]carbonyl}oxy)-6,9-difluoro-11-hydroxy-16-methyl-3-oxoandrosta-1,4-diene-17-carboxylate] | < 40 | 
CC(C)C1CCC(OC(=O)O[C@]2(C(=O)OCC#N)[C@H](C)C[C@H]3[C@@H]4C[C@H](F)C5=CC(=O)C=C[C@]5(C)[C@@]4(F)[C@@H](O)C[C@@]32C)CC1 (single isomer, unassigned) [Example 11B, Cyanomethyl (6α,11β,16α,17α)-6,9-difluoro-11-hydroxy-16-methyl-17-[({[4-(1-methylethyl)cyclohexyl]oxy}carbonyl)oxy]-3-oxoandrosta-1,4-diene-17-carboxylate] |  | < 0.316
C[C@@H]1C[C@H]2[C@@H]3C[C@H](F)C4=CC(=O)C=C[C@]4(C)[C@@]3(F)[C@@H](O)C[C@]2(C)[C@@]1(OC(=O)OC(C)(C)C)C(=O)OCC#N [Example 1, Cyanomethyl (6α,11β,16α,17α)-17-({[(1,1-dimethylethyl)oxy]carbonyl}oxy)-6,9-difluoro-11-hydroxy-16-methyl-3-oxoandrosta-1,4-diene-17-carboxylate] |  | < 0.1
CCC(C)(C)OC(=O)O[C@]1(C(=O)OCC#N)[C@H](C)C[C@H]2[C@@H]3C[C@H](F)C4=CC(=O)C=C[C@]4(C)[C@@]3(F)[C@@H](O)C[C@@]21C [Example 2, Cyanomethyl (6α,11β,16α,17α)-17-({[(1,1-dimethylpropyl)oxy]carbonyl}oxy)-6,9-difluoro-11-hydroxy-16-methyl-3-oxoandrosta-1,4-diene-17-carboxylate] |  | < 0.1
CCC(CC)OC(=O)O[C@]1(C(=O)OCC#N)[C@H](C)C[C@H]2[C@@H]3C[C@H](F)C4=CC(=O)C=C[C@]4(C)[C@@]3(F)[C@@H](O)C[C@@]21C [Example 3, Cyanomethyl (6α,11β,16α,17α)-17-({[(1-ethylpropyl)oxy]carbonyl}oxy)-6,9-difluoro-11-hydroxy-16-methyl-3-oxoandrosta-1,4-diene-17-carboxylate] |  | < 0.316
CC(C)C(OC(=O)O[C@]1(C(=O)OCC#N)[C@H](C)C[C@H]2[C@@H]3C[C@H](F)C4=CC(=O)C=C[C@]4(C)[C@@]3(F)[C@@H](O)C[C@@]21C)C(C)C [Example 4, Cyanomethyl (6α,11β,16α,17α)-6,9-difluoro-11-hydroxy-16-methyl-17-[({[2-methyl-1-(1-methylethyl)propyl]oxy}carbonyl)oxy]-3-oxoandrosta-1,4-diene-17-carboxylate] |  | < 0.316
CCC(CC)COC(=O)O[C@]1(C(=O)OCC#N)[C@H](C)C[C@H]2[C@@H]3C[C@H](F)C4=CC(=O)C=C[C@]4(C)[C@@]3(F)[C@@H](O)C[C@@]21C [Example 5, Cyanomethyl (6α,11β,16α,17α)-17-({[(2-ethylbutyl)oxy]carbonyl}oxy)-6,9-difluoro-11-hydroxy-16-methyl-3-oxoandrosta-1,4-diene-17-carboxylate] | < 40 | < 0.316
C[C@@H]1C[C@H]2[C@@H]3C[C@H](F)C4=CC(=O)C=C[C@]4(C)[C@@]3(F)[C@@H](O)C[C@]2(C)[C@@]1(OC(=O)OCC(C)(C)C)C(=O)OCC#N [Example 6, Cyanomethyl (6α,11β,16α,17α)-17-({[(2,2-dimethylpropyl)oxy]carbonyl}oxy)-6,9-difluoro-11-hydroxy-16-methyl-3-oxoandrosta-1,4-diene-17-carboxylate] |  | < 0.316
CCC(OC(=O)O[C@]1(C(=O)OCC#N)[C@H](C)C[C@H]2[C@@H]3C[C@H](F)C4=CC(=O)C=C[C@]4(C)[C@@]3(F)[C@@H](O)C[C@@]21C)C(C)C (stereo partly drawn) [Example 7, Cyanomethyl (6α,11β,16α,17α)-17-({[(1-ethyl-2-methylpropyl)oxy]carbonyl}oxy)-6,9-difluoro-11-hydroxy-16-methyl-3-oxoandrosta-1,4-diene-17-carboxylate] | < 40 | < 0.316
CC(C)C(C)OC(=O)O[C@]1(C(=O)OCC#N)[C@H](C)C[C@H]2[C@@H]3C[C@H](F)C4=CC(=O)C=C[C@]4(C)[C@@]3(F)[C@@H](O)C[C@@]21C (stereo partly drawn) [Example 8, Cyanomethyl (6α,11β,16α,17α)-17-({[(1,2-dimethylpropyl)oxy]carbonyl}oxy)-6,9-difluoro-11-hydroxy-16-methyl-3-oxoandrosta-1,4-diene-17-carboxylate] | < 40 | < 0.316
C[C@@H]1C[C@H]2[C@@H]3C[C@H](F)C4=CC(=O)C=C[C@]4(C)[C@@]3(F)[C@@H](O)C[C@]2(C)[C@@]1(OC(=O)OC1CCCC1)C(=O)OCC#N [Example 9, Cyanomethyl (6α,11β,16α,17α)-17-{[(cyclopentyloxy)carbonyl]oxy}-6,9-difluoro-11-hydroxy-16-methyl-3-oxoandrosta-1,4-diene-17-carboxylate] | < 40 | < 0.316
CCCC(CCC)OC(=O)O[C@]1(C(=O)OCC#N)[C@H](C)C[C@H]2[C@@H]3C[C@H](F)C4=CC(=O)C=C[C@]4(C)[C@@]3(F)[C@@H](O)C[C@@]21C [Example 21, Cyanomethyl (6α,11β16α,17α)-6,9-difluoro-11-hydroxy-16-methyl-3-oxo-17-({[(1-propylbutyl)oxy]carbonyl}oxy)androsta-1,4-diene-17-carboxylate] | < 40 | 
CC1CC2C3CC(F)C4=CC(=O)C=CC4(C)C3(F)C(O)CC2(C)C1(OC(=O)OC1CC2CCC1(C)C2(C)C)C(=O)OCC#N (stereo not drawn) [Example 22, Cyanomethyl (6α,11β,16α,17α)-6,9-difluoro-11-hydroxy-16-methyl-3-oxo-17-[({[(1RS,2RS,4RS)-1,7,7-trimethylbicyclo[2.2.1]hept-2-yl]oxy}carbonyl)oxy]androsta-1,4-diene-17-carboxylate] | < 40 | 
CC(OC(=O)O[C@]1(C(=O)OCC#N)[C@H](C)C[C@H]2[C@@H]3C[C@H](F)C4=CC(=O)C=C[C@]4(C)[C@@]3(F)[C@@H](O)C[C@@]21C)C(C)(C)C (stereo partly drawn) [Example 23, Cyanomethyl (6α,11β,16α,17α)-6,9-difluoro-11-hydroxy-16-methyl-3-oxo-17-({[(1,2,2-trimethylpropyl)oxy]carbonyl}oxy)androsta-1,4-diene-17-carboxylate] | < 40 | 
CCCC(OC(=O)O[C@]1(C(=O)OCC#N)[C@H](C)C[C@H]2[C@@H]3C[C@H](F)C4=CC(=O)C=C[C@]4(C)[C@@]3(F)[C@@H](O)C[C@@]21C)C(C)C (stereo partly drawn) [Example 24, Cyanomethyl (6α,11β,16α,17α)-6,9-difluoro-11-hydroxy-16-methyl-17-[({[1-(1-methylethyl)butyl]oxy}carbonyl)oxy]-3-oxoandrosta-1,4-diene-17-carboxylate] | < 40 | 

Reference: patent US7579335B2, “Androstane 17α-carbonate derivatives for use in the treatment of allergic and inflammatory conditions” (Glaxo Group Limited, priority 2005, dated 2009)
